We go through two molecules from US20250073234A1, “COMBINATION THERAPIES INCLUDING PARP1 INHIBITORS” (Cornell University, priority 2022, published 2025).

Assay [1] concerns p62 (SQSTM1) in WPMY-1 cells. The assay is described as follows: p62/SQSTM1 expression in WPMY-1 stromal fibroblasts (immunoblot, qPCR). Format: cell-based, human. From the text:
To knock out PARP-1 in WPMY-1 cells, single-guide RNA sequences targeting PARP-1 exon2 were purchased from Synthego and transduced into WPMY-1 cells with recombinant Streptococcus pyogenes Cas9 protein (Truecut Cas9 Protein v2, Thermo), using the Neon Transfection System 1 (Invitrogen) following the manufacturer's protocol and single clones were expanded and screened by protein immunoblotting. To perform AP1-A binding site editing in the SQSTM promoter in WPMY-1 cells, single-guide RNA sequences targeting the human AP1-A binding site (Synthego) was transduced into cells with a Cas9 protein and a single-stranded donor oligonucleotide (ssODN, IDT) using Neon Electroporation System. Single clones were expanded and screened for AP1-A editing by Sanger sequencing. A point mutation to disrupt the API enhancer element in the p62 promoter was introduced by Site Directed Mutagenesis (Stratagene). Knockdown of MCT1, MCT4, FOS, PARP1, PARP2, CD38, ATG5, and SIRT1-7 genes in WPMY-1 cells were achieved by siRNA transfection using Lipofectamine RNAiMAX Transfection Reagent (Invitrogen). Transient overexpression was achieved by transfection using X-tremeGENE HP transfection reagent (Roche). Transfected cells were examined 48 hours after transfection. Establishing stably GFP or RFP expressing cells was achieved by lentivirus-mediated transduction. Lentivirus were produced in HEK293T cells using X-tremeGENE HP transfection reagent (Roche). Virus-containing supernatants were collected 48, 72 and 96 hours after transfection, filtered to eliminate cells, and supplemented with 8 μg/ml polybrene. Cells were infected with three rounds of viral supernatants and selected with puromycin (3 μg/ml). For autophagy or proteasome inhibition, WPMY-1 cells were treated for 12 hours with 100 nM bafilomycin Al or 12 hours with 20 μM of MG132, respectively, or vehicle (DMSO). […] For MCT1 inhibition, WPMY-1 cells were treated for 48 hours with 10 μM of AZD3965. For cJUN inhibition, WPMY-1 cells were treated for 48 hours with 10 μM of SP600125. For calpains and caspases inhibition, WPMY-1 cells were treated for 48 hours with 1-20 μM of Calpeptin (Tocris) or z-VAD-FMK (Tocris), respectively. For protein synthesis inhibition, WPMY-1 cells were treated with 50 μg/ml of cycloheximide (Sigma). Conditioned media (CM) was generated by collecting supernatant on day 3. CM was transferred to a 15 ml BD Falcon tube and centrifuged at 1300 rpm for 10 minutes. The supernatant was sterile filtered using a […] (Millex-GV) with a 10 ml syringe barrel. The samples were stored at […] for future experiments. Fractionation of the CM was achieved using Amicon Ultra centrifugal filters (3KUltracel, Millipore). The supernatant was centrifuged at 4000 rpm for 1 hour. The supernatant fraction that was >3 kDa remained above the filter and that which was <3 kDa passed through to the lower chamber. The >3-kDa fraction was resuspended in DMEM to the pre-filtration volume.
Background: In western blotting, separated proteins are transferred to a membrane and probed.

In assay [2] the test system is PC3 + WPMY-1 tumors. The assay is described as follows: Subcutaneous xenograft co-implantation of PC3 and WPMY-1 cells in NSG mice. In kind it is in vivo, mouse. Particulars: Olaparib 40 mg/kg i.p. twice a week, 2 weeks. How it is done:
For mouse xenografts using PC3 PCa cells and sgC or sgAP-1 WPMY-1 stromal cells. 7 weeks old NSG mice were surgical castrated and let androgen levels drop for 10 days. Cells were trypsinized washed two times in PBS and resuspend in DMEN. 1×10^6 PC3 and 1×10^6 sgC or sgAP1-A WPMY-1 for each mouse were resuspended in 100 μl DMEM: Matrigel (1:1) and injected subcutaneously into both flanks of immunocompromised NSG mice (PC3+sgC WPMY-1 n=4; PC3+sgAP-1 WPMY-1 n=4). Tumors were allowed to grow for 1 month. Mice were euthanized and tumors were collected and analyzed histologically. For Olaparib treatment in mouse xenografts. PC3 PCa cells and WPMY-1 stromal cells were trypsinized washed two times in PBS and resuspend in DMEN. 1×10^6 PC3 and 1×10^6 WPMY-1 for each mouse were resuspended in 100 μl DMEM: Matrigel (1:1) and injected subcutaneously into both flanks of immunocompromised NSG mice. Tumors were allowed to grow for 14 days, and mouse were randomly divided to receive vehicle, n=10, Olaparib (40 mg/kg, 2 days each week, i.p.), n=10 or Olaparib (40 mg/kg, 2 days each week, i.p.)+_PEGPH20 (0.0375 mg/Kg, 2 days each week, retroorbital injection) n=10. Tumors were measured twice a week. Mice were euthanized 14 days after the initiation of the treatment and tumors were collected and analyzed histologically. For Olaparib treatment in mice, 13 weeks-old male TRAMP^+, n=18, were randomly distributed to receive vehicle, n=9, or Olaparib (40 mg/kg/, 5 days each week, i.p.), n=9. Mice were euthanized 1 month after the initiation of the treatment. Prostate and other organs were collected and analyzed histologically.
Tissues from indicated mice were isolated, fixed in zinc buffered formalin overnight at 4° C., dehydrated, and embedded in paraffin. Sections (5 μm) were stained with hematoxylin and eosin (H&E). For immunohistochemistry, sections were deparaffinized, rehydrated, and then treated for antigen retrieval. […] Stained sections were analyzed with a Zeiss light microscope supplemented with Zen 3.3 Bule edition software.

Assay [3] relates to PC3^GFP cells. In words: Survival of GFP-labeled PC3 cells alone or co-cultured with WPMY-1 cells. Format: cell-based, human. Particulars: Olaparib 5 μM, 10 days, basal and ADT. How it is done:
Co-culture assays were performed as described previously (Valencia et al., 2014). Briefly, stromal cells were seeded in TC-treated 6-well plates and allowed to attach for 6 hours before PCa cells were seeded on top of Milicell Cell Culture Inserts (Millipore). Inserts were then placed in the pre-seeded 6-well plate. For co-culture experiments of PC3-GFP label with WPMY-1 cells, 500 PC3 and 1000 WPMY-1 were seeded in a 96 well plate in DMEN containing 10% FBS (basal conditions) or 10% charcoal stripped FBS (ADT conditions) and vehicle (DMSO) or Olaparib 5 μM for 10 days. Media and treatments were refresh every 48 hours. Pictures were taken using EVOS M5000 Imaging System and GFP positive were measured using Fiji (Schindelin et al., 2012).

With `NC(=O)c1ccc[n+]([C@@H]2O[C@H](COP(=O)([O-])OP(=O)(O)OC[C@H]3O[C@@H](n4cnc5c(N)ncnc54)[C@H](O)[C@@H]3O)[C@@H](O)[C@H]2O)c1` [NAD^+], in assay [1] (lactate-treated WPMY-1 cells, 48 h, NAD 150 μM, NR 200 μM), the “rescue of lactate-induced reduction in p62” value is given as “completely rescued the lactate-induced reduction in p62”.
As to `O=C(c1cc(Cc2n[nH]c(=O)c3ccccc23)ccc1F)N1CCN(C(=O)C2CC2)CC1` [Olaparib], in assay [1] (WPMY-1 cells, basal and ADT conditions), the “SQSTM1 mRNA levels” value is recorded as “reduced SQSTM1 mRNA levels”. For the same molecule, the “p62 expression (protein, SQSTM1 mRNA)” value in assay [1] (WPMY-1 cells, PJ34 24 h, Olaparib 48 h) is given as “reduced the expression of p62 in a dose-dependent manner”. Moreover, in assay [2], the “desmoplastic response (collagen, HA, aSMA, p62)” value was “strong desmoplastic response” and the “tumor growth (weight, volume)” value is “efficiently reduced tumor growth”. In assay [3], the “sensitivity of PC3^GFP cells to Olaparib, co-culture vs monoculture” value is reported as “more resistant to Olaparib”.
